# Experimental data: patent US20250122174A1 (Shenzhen Yuanli Shenwan Innovative Medicine Co., Ltd., priority 2022, published 2025)
# Target: HPK1 (Homo sapiens (Human), UniProt Q92918)
# Assay: HPK1 Inhibition Assay (ADP-Glo kinase assay)
# Assay type: biochemical
# Settings: ATP 10 μM
# Method in brief: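 ADP-Glo luminescence read-out after 1 h room-temperature kinase reaction with 10 μM ATP and 0.1 μg/ml MBP. Recombinant human HPK1 at 7.5 ng/μl; buffer 40 mM Tris pH 7.5, 20 mM MgCl2. Compounds serially diluted 5-fold over 10 points from 10 mM DMSO stock.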
# Chain of HPK1 (Q92918 1-346 limits assumed): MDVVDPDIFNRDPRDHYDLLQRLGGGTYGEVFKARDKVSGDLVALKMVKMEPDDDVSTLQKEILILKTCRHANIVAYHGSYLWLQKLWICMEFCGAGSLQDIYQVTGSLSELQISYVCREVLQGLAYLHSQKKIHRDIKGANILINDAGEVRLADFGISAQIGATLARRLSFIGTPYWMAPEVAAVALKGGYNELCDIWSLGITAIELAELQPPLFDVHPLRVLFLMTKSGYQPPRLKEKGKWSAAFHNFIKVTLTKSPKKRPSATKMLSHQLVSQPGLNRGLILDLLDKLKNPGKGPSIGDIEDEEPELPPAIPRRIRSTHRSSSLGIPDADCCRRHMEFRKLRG
row,IC50 [nM],SMILES
1,< 100,"CCC(C)(C)n1cc2c(N3C[C@@H](C)[C@@H](N)C3)c(NC(=O)c3ccc(=O)n(-c4c(F)cccc4F)n3)ccc2n1 [Example 244, 1-(2,6-difluorophenyl)-N-(4-[(3R,4R)-3-amino-4-methyltetrahydro-1H-pyrrol-1-yl]-2-(2-methylbut-2-yl)indazol-5-yl)-6-oxo-1,2-diazine-3-carboxamide]"
2,< 100,"[2H]C([2H])([2H])C([2H])(n1ncc2c(N3C[C@@H](N)C(C)(C)C3)c(NC(=O)c3ccc(=O)n(-c4c(F)cccc4F)n3)ccc21)C([2H])([2H])[2H] [Example 282, (S)-N-(4-(4-amino-3,3-dimethylpyrrolidin-1-yl)-1-(propan-2-yl-d7)-1H-indaozl-5-yl)-1-(2,6-difluorophenyl)-6-oxo-1,6-dihydropyridazine-3-carboxamide]"
3,< 100,"COc1cccc(F)c1-c1nccc(C(=O)Nc2ccc3c(nc(C(F)F)n3C)c2N2CCC(N)C2)c1F (stereo in doubt) [Example 164, N-(4-((S)-3-aminopyrrolidin-1-yl)-2-(difluoromethyl)-1-methyl-1H-benzo[d]imidazol-5-yl)-3-fluoro-2-(2-fluoro-6-methoxyphenyl)isonicotinamide]"
4,< 100,"COCCn1c(C)nc2c(N3CC[C@H](N)C3)c(NC(=O)c3ccnc(-c4c(F)cccc4OC)c3F)ccc21 [Example 11, N-(4-((S)-3-aminopyrrolidin-1-yl)-1-(2-methoxyethyl)-2-methyl-1H-benzo[d]imidazol-5-yl)-3-fluoro-2-(2-fluoro-6-methoxyphenyl)isonicotinamide]"
5,< 100,"Cn1c(C2CC2)nc2c(N3CC[C@@H](N)C3)c(NC(=O)c3ccc(=O)n(-c4c(F)cccc4F)n3)ccc21 [Example 160, (R)-N-(4-(3-aminopyrrolidin-1-yl)-2-cyclopropyl-1-methyl-1H-benzo[d]imidazol-5-yl)-1-(2,6-difluorophenyl)-6-oxo-1,6-dihydropyridazine-3-carboxamide]"
6,< 100,"CC1(C)CN(c2c(NC(=O)c3ccc(=O)n(-c4c(F)cccc4F)n3)ccc3c2cnn3[C@@H]2CCOC2)C[C@H]1N [Example 268, N-(4-((S)-4-amino-3,3-dimethylpyrrolidin-1-yl)-1-((R)-tetrahydrofuran-3-yl)-1H-indazol-5-yl)-1-(2,6-difluorophenyl)-6-oxo-1,6-dihydropyridazine-3-carboxamide]"
7,< 100,"Cc1nc2c(N3CCC[C@@H](N)C3)c(NC(=O)c3ccc(=O)n(-c4c(F)cccc4F)n3)ccc2n1C [Example 67, (R)—N-(4-(3-aminopiperidin-1-yl)-1,2-dimethyl-1H-benzo[d]imidazol-5-yl)-1-(2,6-difluorophenyl)-6-oxo-1,6-dihydropyridazine-3-carboxamide]"
8,< 100,"Cc1cc(NC(=O)c2ccc(=O)n(-c3c(F)cccc3F)n2)c(N2CC[C@@H](N)C2)c2cn(C(C)C)nc12 [Example 226, (R)-N-(4-(3-aminopyrrolidin-1-yl)-2-isopropyl-7-methyl-2H-indazol-5-yl)-1-(2,6-difluorophenyl)-6-oxo-1,6-dihydropyridazine-3-carboxamide]"
9,< 100,"N[C@H]1CN(c2c(NC(=O)c3ccc(=O)n(-c4c(F)cccc4F)n3)ccc3c2cnn3[C@@H]2CCCOC2)CC12CC2 [Example 272, N-(4-((R)-7-amino-5-azaspiro[2.4]heptan-5-yl)-1-((R)-tetrahydro-2H-pyran-3-yl)-1H-indazol-5-yl)-1-(2,6-difluorophenyl)-6-oxo-1,6-dihydropyridazine-3-carboxamide]"
10,< 100,"CC(C)n1ncc2c(N3C[C@H]4CNC[C@H]4C3)c(NC(=O)c3ccc(=O)n(-c4c(F)cccc4F)n3)cc(F)c21 [Example 219, 1-(2,6-difluorophenyl)-N-(7-fluoro-4-((3aR,6aS)-hexahydropyrrolo[3,4-c]pyrrol-2(1H)-yl)-1-isopropyl-1H-indazol-5-yl)-6-oxo-1,6-dihydropyridazine-3-carboxamide]"
11,< 100,"CC(C)n1nnc2c(N3C[C@@H](C)[C@@H](N)C3)c(NC(=O)c3ccc(=O)n(-c4c(F)cccc4F)n3)ccc21 [Example 341, N-(4-((3R,4R)-3-amino-4-methylpyrrolidin-1-yl)-1-isopropyl-1H-benzo[d][1,2,3]triazol-5-yl)-1-(2,6-difluorophenyl)-6-oxo-1,6-dihydropyridazine-3-carboxamide]"
12,< 100,"C[C@@H]1CN(c2c(NC(=O)c3ccc(=O)n(-c4c(F)cccc4F)n3)ccc3c2nc(C(C)(C)C)n3C)C[C@@H]1N [Example 104, N-(4-((3R,4R)-3-amino-4-methylpyrrolidin-1-yl)-2-(tert-butyl)-1-methyl-1H-benzo 112 midazolezol-5-yl)-1-(2,6-difluorophenyl)-6-oxo-1,6-dihydropyridazine-3-carboxamide]"
13,100 to 1000,"COc1cccc(F)c1-c1nc(C(=O)Nc2cc(F)ccc2N2C[C@@H]3C[C@H]2CN3)cs1 [Example 64, N-(2-((1S,4S)-2,5-diazabicyclo[2.2.1]heptan-2-yl)-5-fluorophenyl)-2-(2-fluoro-6-methoxyphenyl)thiazole-4-carboxamide]"
14,< 100,"Cn1cc2c(N3CC[C@@H](N)C3)c(NC(=O)c3ccc(=O)n(-c4c(F)cccc4F)n3)ccc2n1 [Example 175, (R)—N-(4-(3-aminopyrrolidin-1-yl)-2-methyl-2H-indazol-5-yl)-1-(2,6-difluorophenyl)-6-oxo-1,6-dihydropyridazine-3-carboxamide]"
15,< 100,"Cc1nn(C(C)C)c2ccc(NC(=O)c3ccc(=O)n(-c4c(F)cccc4F)n3)c(N3C[C@@H](C)[C@@H](N)C3)c12 [Example 192, N-(4-((3R,4R)-3-amino-4-methylpyrrolidin-1-yl)-1-isopropyl-3-methyl-1H-indazol-5-yl)-1-(2,6-difluorophenyl)-6-oxo-1,6-dihydropyridazine-3-carboxamide]"
16,< 100,"COc1cccc(F)c1-c1cccc(C(=O)Nc2ccc3c(nc(C)n3C)c2N2CCC[C@H]2CN)[n+]1[O-] [Example 61, 2-((4-((S)-2-(aminomethyl)pyrrolidin-1-yl)-1,2-dimethyl-1H-benzo[d]imidazol-5-yl)carbamoyl)-6-(2-fluoro-6-methoxyphenyl)pyridine 1-oxide]"
17,< 100,"CC(C)c1nc2c(N3CC[C@H](CN)C3)c(NC(=O)c3ccc(=O)n(-c4c(F)cccc4F)n3)ccc2n1C [Example 115, (R)-N-(4-(3-(aminomethyl)pyrrolidin-1-yl)-2-isopropyl-1-methyl-1H-benzo[d]imidazol-5-yl)-1-(2,6-difluorophenyl)-6-oxo-1,6-dihydropyridazine-3-carboxamide]"
18,< 100,"N[C@@H]1CCN(c2c(NC(=O)c3ccc(=O)n(-c4c(F)cccc4F)n3)ccc3c2cnn3C2CCOCC2)C1 [Example 274, N-[4-[(3R)-3-aminopyrrolidin-1-yl]-1-tetrahydropyran-4-yl-indazol-5-yl]-1-(2,6-difluorophenyl)-6-oxo-pyridazine-3-carboxamid]"
19,< 100,"C[C@@H]1CN(c2c(NC(=O)c3ccc(=O)n(-c4c(F)cccc4F)n3)ccc3c2cnn3[C@@H]2CCOC2)C[C@@H]1N [Example 262, N-(4-((3R,4R)-3-amino-4-methylpyrrolidin-1-yl)-1-((R)-tetrahydrofuran-3-yl)-1H-indazol-5-yl)-1-(2,6-difluorophenyl)-6-oxo-1,6-dihydropyridazine-3-carboxamide]"
20,< 100,"N#Cc1ccncc1-c1ccc(NC(=O)c2ccc(=O)n(-c3c(F)cccc3F)n2)c(N2CCN[C@H](CO)C2)c1 [Example 350, (S)-N-(4-(4-cyanopyridin-3-yl)-2-(3-(hydroxymethyl)piperazin-1-yl)phenyl)-1-(2,6-difluorophenyl)-6-oxo-1,6-dihydropyridazine-3-carboxamide]"
21,< 100,"CC(C)c1nc2c(N3CC[C@@H](N)C3)c(NC(=O)c3ccc(=O)n(-c4c(F)cccc4F)n3)cc(F)c2n1C [Example 143, (R)—N-(4-(3-aminopyrrolidin-1-yl)-7-fluoro-2-isopropyl-1-methyl-1H-benzo[d]imidazol-5-yl)-1-(2,6-difluorophenyl)-6-oxo-1,6-dihydropyridazine-3-carboxamide]"
22,< 100,"COc1cccc(F)c1-c1cccc(C(=O)Nc2ccc3nn(C)cc3c2N2C[C@H]3C[C@@H]2CN3)[n+]1[O-] [Example 57, 2-((4-((1R,4R)-2,5-diazabicyclo[2.2.1]heptan-2-yl)-2-methyl-2H-indazol-5-yl)carbamoyl)-6-(2-fluoro-6-methoxyphenyl)pyridine 1-oxide]"
23,< 100,"C[C@H]1CN(c2c(NC(=O)c3ccc(=O)n(-c4c(F)cccc4F)n3)ccc3c2cnn3C2CC2)C[C@@H]1N [Example 299, N-(4-((3R,4S)-3-amino-4-methylpyrrolidin-1-yl)-1-cyclopropyl-1H-indazol-5-yl)-1-(2,6-difluorophenyl)-6-oxo-1,6-dihydropyridazine-3-carboxamide]"
24,< 100,"CC(C)n1nnc2c(N3C[C@H](N)C4(CC4)C3)c(NC(=O)c3ccc(=O)n(-c4c(F)cccc4F)n3)ccc21 [Example 340, 1-(2,6-difluorophenyl)-N-{4-[(7R)-7-amino-5-azaspiro[2.4]heptan-5-yl]-1-(prop-2-yl)benzo[d][1,2,3]triazol-5-yl}-6-oxo-1,2-diazine-3-carboxamide]"
25,< 100,"COc1cccc(F)c1-c1cccc(C(=O)Nc2cc(F)c3nn(C)cc3c2N2CC[C@H](N)C2)[n+]1[O-] [Example 59, 2-((4-((S)-3-aminopyrrolidin-1-yl)-7-fluoro-2-methyl-2H-indazol-5-yl)carbamoyl)-6-(2-fluoro-6-methoxyphenyl)pyridine 1-oxide]"
26,< 100,"COc1cccc(F)c1-c1cccc(C(=O)Nc2cc(F)c3c(cnn3C)c2N2CC[C@H](N)C2)[n+]1[O-] [Example 58, 2-((4-((S)-3-aminopyrrolidin-1-yl)-7-fluoro-1-methyl-1H-indazol-5-yl)carbamoyl)-6-(2-fluoro-6-methoxyphenyl)pyridine 1-oxide]"
